According to ChEMBL document CHEMBL2016526, “3-(N-arylsulfamoyl)benzamides, inhibitors of human sirtuin type 2 (SIRT2)” (Bioorg Med Chem Lett, 2012):
The source made the active and inactive calls. The rule behind the calls is not given here.

Key:
[1] = target: T1, NAD-dependent protein deacetylase sirtuin-2 (Homo sapiens) (UniProt Q8IXJ6); assay: Inhibition of recombinant SIRT2 assessed as lysine deacetylation at 10 uM relative to control; set-up: scale not given: the % may be the effect or the level left
T1 sequence (whole entry): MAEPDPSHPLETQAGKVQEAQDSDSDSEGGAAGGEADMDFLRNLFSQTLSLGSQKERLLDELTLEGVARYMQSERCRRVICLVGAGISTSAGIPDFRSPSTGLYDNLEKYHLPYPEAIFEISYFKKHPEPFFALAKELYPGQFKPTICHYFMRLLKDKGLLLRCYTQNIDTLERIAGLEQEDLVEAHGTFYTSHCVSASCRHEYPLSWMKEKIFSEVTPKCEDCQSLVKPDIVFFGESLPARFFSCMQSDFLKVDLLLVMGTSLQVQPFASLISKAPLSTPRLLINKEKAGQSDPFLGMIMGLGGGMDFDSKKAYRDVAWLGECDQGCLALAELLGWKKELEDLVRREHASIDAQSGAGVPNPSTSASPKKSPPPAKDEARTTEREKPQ

[2] = target: T1, NAD-dependent protein deacetylase sirtuin-2 (Homo sapiens); assay: Inhibition of recombinant SIRT2 assessed as lysine deacetylation at 50 uM relative to control; set-up: scale not given: the % may be the effect or the level left
[3] = target: T2, NAD-dependent protein deacetylase sirtuin-3, mitochondrial (Homo sapiens) (UniProt Q9NTG7); assay: Inhibition of recombinant SIRT3 assessed as lysine deacetylation at 10 uM relative to control
T2 sequence (whole entry): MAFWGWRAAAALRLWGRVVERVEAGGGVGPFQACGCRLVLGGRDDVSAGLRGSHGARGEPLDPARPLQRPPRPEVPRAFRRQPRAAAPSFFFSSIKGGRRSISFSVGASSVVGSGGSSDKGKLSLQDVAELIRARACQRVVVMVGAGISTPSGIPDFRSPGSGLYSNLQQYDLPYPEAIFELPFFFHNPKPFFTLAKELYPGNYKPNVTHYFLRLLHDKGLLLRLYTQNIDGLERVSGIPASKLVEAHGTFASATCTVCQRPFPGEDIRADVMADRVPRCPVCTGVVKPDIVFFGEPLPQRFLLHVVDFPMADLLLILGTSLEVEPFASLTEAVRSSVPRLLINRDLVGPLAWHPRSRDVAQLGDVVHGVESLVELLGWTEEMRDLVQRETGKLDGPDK

[4] = target: T1, NAD-dependent protein deacetylase sirtuin-2 (Homo sapiens); assay: Inhibition of recombinant SIRT2 assessed as lysine deacetylation at 1 to 50 uM
[5] = target: T3, NAD-dependent protein deacetylase sirtuin-1 (Homo sapiens) (UniProt Q96EB6); assay: Inhibition of recombinant SIRT1 assessed as lysine deacetylation at 10 uM
T3 sequence (whole entry): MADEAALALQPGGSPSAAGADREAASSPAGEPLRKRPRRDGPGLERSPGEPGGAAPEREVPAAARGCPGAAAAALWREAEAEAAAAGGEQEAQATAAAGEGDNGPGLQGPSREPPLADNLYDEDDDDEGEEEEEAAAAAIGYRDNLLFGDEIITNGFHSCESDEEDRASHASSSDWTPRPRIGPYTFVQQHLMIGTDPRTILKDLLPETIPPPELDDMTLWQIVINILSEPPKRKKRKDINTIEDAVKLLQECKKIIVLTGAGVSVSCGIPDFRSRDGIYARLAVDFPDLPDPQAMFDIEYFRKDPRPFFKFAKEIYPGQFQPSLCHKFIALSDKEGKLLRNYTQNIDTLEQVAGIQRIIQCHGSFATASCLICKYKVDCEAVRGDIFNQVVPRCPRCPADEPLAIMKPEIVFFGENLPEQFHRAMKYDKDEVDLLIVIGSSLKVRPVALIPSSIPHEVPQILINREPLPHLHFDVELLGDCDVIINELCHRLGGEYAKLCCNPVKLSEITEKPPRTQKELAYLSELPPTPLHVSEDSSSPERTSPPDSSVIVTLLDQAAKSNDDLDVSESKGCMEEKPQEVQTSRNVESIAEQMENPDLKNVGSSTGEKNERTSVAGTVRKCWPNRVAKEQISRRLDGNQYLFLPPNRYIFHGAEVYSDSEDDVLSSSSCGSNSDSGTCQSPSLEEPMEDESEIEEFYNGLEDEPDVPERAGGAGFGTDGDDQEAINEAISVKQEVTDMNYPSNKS

[6] = target: T3, NAD-dependent protein deacetylase sirtuin-1 (Homo sapiens); assay: Inhibition of recombinant SIRT1 assessed as lysine deacetylation up to 50 uM
[7] = target: T1, NAD-dependent protein deacetylase sirtuin-2 (Homo sapiens); assay: Inhibition of recombinant SIRT2 assessed as lysine deacetylation at 6.25 to 25 uM
[8] = target: T2, NAD-dependent protein deacetylase sirtuin-3, mitochondrial (Homo sapiens); assay: Inhibition of recombinant SIRT3 assessed as lysine deacetylation up to 50 uM
[9] = target: T1, NAD-dependent protein deacetylase sirtuin-2 (Homo sapiens); assay: Inhibition of recombinant SIRT2 assessed as lysine deacetylation at 25 uM relative to control; set-up: scale not given: the % may be the effect or the level left

Q: `CN(C(=O)c1cccc(S(=O)(=O)N(C)c2ccc(Cl)cc2)c1)c1ccc(Br)cc1` was tested. Which Activity [1] did it give?
A: 72%

Q: With `CN(C(=O)c1cccc(S(=O)(=O)N(C)c2ccc(Br)cc2)c1)c1ccc(C(F)(F)F)cc1` as the compound, how does the Activity [2] read?
A: 76%

Q: With `CN(C(=O)c1cccc(S(=O)(=O)N(C)c2ccc(Br)cc2)c1)c1ccc(Cl)cc1` as the compound, how does the inhibition [3] read?
A: inactive

Q: What about the Activity [1] of the same compound?
A: 54%

Q: What about the inhibition [4] of the same compound?
A: Active

Q: And the inhibition [5]?
A: inactive

Q: How did the inhibition [3] turn out when `CN(C(=O)c1cccc(S(=O)(=O)N(C)c2ccc(C(F)(F)F)cc2)c1)c1ccc(Br)cc1` was run?
A: inactive

Q: What about the Activity [1] of the same compound?
A: 55%

Q: What about the inhibition [5] of the same compound?
A: inactive

Q: For `CN(C(=O)c1cccc(S(=O)(=O)N(C)c2ccc(Br)cc2)c1)c1ccc(Br)cc1`, which inhibition [6] is on record?
A: inactive

Q: What about the inhibition [7] of the same compound?
A: Active

Q: And the inhibition [8]?
A: inactive

Q: What about the inhibition [4] of the same compound?
A: Active

Q: Which Activity [9] does the source give for `CCN(c1ccc(Br)cc1)S(=O)(=O)c1cccc(C(=O)Nc2ccc(Br)cc2)c1` here?
A: 82%

Q: How did the inhibition [6] turn out when `CN(c1ccc(Br)cc1)S(=O)(=O)c1cccc(C(=O)Nc2ccc(Br)cc2)c1` was run?
A: inactive

Q: What about the Activity [9] of the same compound?
A: 56%

Q: And the inhibition [7]?
A: Active

Q: And the inhibition [8]?
A: inactive

Q: How did the Activity [9] turn out when `C=CCN(c1ccc(Br)cc1)S(=O)(=O)c1cccc(C(=O)Nc2ccc(Br)cc2)c1` was run?
A: 92%

Q: Which inhibition [3] does the source give for `CN(C(=O)c1cccc(S(=O)(=O)N(C)c2ccc(Cl)cc2)c1)c1ccc(Cl)cc1` here?
A: 5%

Q: And the inhibition [4]?
A: Active

Q: And the inhibition [5]?
A: inactive

Q: For `CN(C(=O)c1cccc(S(=O)(=O)N(C)c2ccc(Br)cc2)c1)c1ccc(F)cc1`, which Activity [2] is on record?
A: 57%

Q: `O=C(Nc1ccc(Br)cc1)c1cccc(S(=O)(=O)N(Cc2ccccc2)c2ccc(Br)cc2)c1` was tested. Which Activity [9] did it give?
A: 80%

Q: Which inhibition [6] does the source give for `O=C(Nc1cccc([N+](=O)[O-])c1)c1cccc(S(=O)(=O)N2CCCCCC2)c1` here?
A: Active

Q: Which Activity [9] does the source give for `O=C(Nc1ccc(Br)cc1)c1cccc(S(=O)(=O)Nc2ccc(Br)cc2)c1` here?
A: 85%
